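The compound was tested at five concentrations on cells cultured in 96-well plates, with a 48-hour exposure period. GI50 is the concentration that inhibits growth by half.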 Active and inactive are the calls of the source. Cut-off read from the data, not from the text of the source: active = GI50 up to about 1.1 µM and inactive = higher.
What was measured:
Experiment in all cases: NCI anticancer screen, dose series, 48 h
TK-10 = system: TK-10
SK-OV-3 = system: SK-OV-3
SK-MEL-5 = system: SK-MEL-5
SNB-75 = system: SNB-75
SF-295 = system: SF-295
UO-31 = system: UO-31
UACC-62 = system: UACC-62
SN12C = system: SN12C
HCT-116 = system: HCT-116
PC-3 = system: PC-3
OVCAR-5 = system: OVCAR-5
SK-MEL-28 = system: SK-MEL-28
MOLT-4 = system: MOLT-4
IGROV-1 = system: IGROV-1
DU-145 = system: DU-145
M14 = system: M14
RPMI-8226 = system: RPMI-8226
A498 = system: A498
HOP-62 = system: HOP-62
OVCAR-4 = system: OVCAR-4
SW-620 = system: SW-620
CAKI-1 = system: CAKI-1
HCC 2998 = system: HCC 2998
HL-60 = system: HL-60
SF-539 = system: SF-539
MCF7 = system: MCF7
LOX IMVI = system: LOX IMVI
MDA-N = system: MDA-N
COLO 205 = system: COLO 205
BT-549 = system: BT-549
HOP-92 = system: HOP-92
KM12 = system: KM12
ACHN = system: ACHN
HCT-15 = system: HCT-15
NCI-H522 = system: NCI-H522
SF-268 = system: SF-268
OVCAR-8 = system: OVCAR-8
U-251 = system: U-251
NCI/ADR-RES = system: NCI/ADR-RES
UACC-257 = system: UACC-257
SK-MEL-2 = system: SK-MEL-2
K562 = system: K562
Malme-3M = system: Malme-3M
CCRF-CEM = system: CCRF-CEM
Hs-578T = system: Hs-578T
MDA-MB-435 = system: MDA-MB-435
SNB-19 = system: SNB-19
HT-29 = system: HT-29
T47D = system: T47D
A549 = system: A549
MDA-MB-231 = system: MDA-MB-231
NCI-H23 = system: NCI-H23
OVCAR-3 = system: OVCAR-3
EKVX = system: EKVX
NCI-H460 = system: NCI-H460
RXF 393 = system: RXF 393
786-0 = system: 786-0
SR = system: SR
NCI-H226 = system: NCI-H226

What does the source list for `c1ccc(N2N=C3N(c4ccccc4)C2N3c2ccccc2)cc1`?
GI50 (TK-10): 71.3 µM (inactive); GI50 (SK-OV-3): > 100 µM (inactive); GI50 (SK-MEL-5): 21.6 µM (inactive); GI50 (SNB-75): 17.8 µM (inactive); GI50 (SF-295): 36.1 µM (inactive); GI50 (UO-31): 58.9 µM (inactive); GI50 (UACC-62): 25.6 µM (inactive); GI50 (SN12C): 48 µM (inactive); GI50 (HCT-116): 31.3 µM (inactive); GI50 (PC-3): 44.5 µM (inactive); GI50 (OVCAR-5): 71.9 µM (inactive); GI50 (SK-MEL-28): 19.1 µM (inactive); GI50 (MOLT-4): 16.5 µM (inactive); GI50 (IGROV-1): 31.4 µM (inactive); GI50 (DU-145): 56.5 µM (inactive); GI50 (M14): 20.3 µM (inactive); GI50 (RPMI-8226): 15.7 µM (inactive); GI50 (A498): 33.1 µM (inactive); GI50 (HOP-62): 58.2 µM (inactive); GI50 (OVCAR-4): 35.6 µM (inactive); GI50 (SW-620): 33.4 µM (inactive); GI50 (CAKI-1): 88.7 µM (inactive); GI50 (HCC 2998): 27.6 µM (inactive); GI50 (HL-60): 38.5 µM (inactive); GI50 (SF-539): 22.3 µM (inactive); GI50 (MCF7): 31.9 µM (inactive); GI50 (LOX IMVI): 21.1 µM (inactive); GI50 (MDA-N): 19.4 µM (inactive); GI50 (COLO 205): 19.5 µM (inactive); GI50 (BT-549): 68.2 µM (inactive); GI50 (HOP-92): 14.1 µM (inactive); GI50 (KM12): 33.7 µM (inactive); GI50 (ACHN): 40.5 µM (inactive); GI50 (HCT-15): 42.9 µM; GI50 (NCI-H522): 21.6 µM (inactive); GI50 (SF-268): 52.8 µM (inactive); GI50 (OVCAR-8): 35.9 µM (inactive); GI50 (U-251): 46.8 µM (inactive); GI50 (NCI/ADR-RES): > 100 µM (inactive); GI50 (UACC-257): 23.1 µM (inactive); GI50 (SK-MEL-2): 24.3 µM (inactive); GI50 (K562): 14.7 µM (inactive); GI50 (Malme-3M): 17.5 µM (inactive); GI50 (CCRF-CEM): 20.7 µM (inactive); GI50 (Hs-578T): 57.7 µM (inactive); GI50 (MDA-MB-435): 17.6 µM (inactive); GI50 (SNB-19): 87.1 µM (inactive); GI50 (HT-29): 29.4 µM (inactive); GI50 (T47D): 52.4 µM (inactive); GI50 (A549): 47.3 µM (inactive); GI50 (MDA-MB-231): 57.3 µM (inactive); GI50 (NCI-H23): 37.9 µM (inactive); GI50 (OVCAR-3): 36.6 µM (inactive); GI50 (EKVX): > 100 µM (inactive); GI50 (NCI-H460): 31.1 µM (inactive); GI50 (RXF 393): 45.3 µM (inactive)

Which results are given for `CC1(C)CN=C(Nc2cccc(C(F)(F)F)c2)S1`?
GI50 (TK-10): > 100 µM (inactive); GI50 (SK-OV-3): > 100 µM (inactive); GI50 (SK-MEL-5): > 100 µM (inactive); GI50 (SNB-75): > 100 µM (inactive); GI50 (SF-295): > 100 µM (inactive); GI50 (UO-31): > 100 µM (inactive); GI50 (UACC-62): > 100 µM (inactive); GI50 (SN12C): > 100 µM (inactive); GI50 (HCT-116): > 100 µM (inactive); GI50 (786-0): > 100 µM (inactive); GI50 (PC-3): > 100 µM (inactive); GI50 (OVCAR-5): > 100 µM (inactive); GI50 (SK-MEL-28): > 100 µM (inactive); GI50 (MOLT-4): > 100 µM (inactive); GI50 (IGROV-1): > 100 µM (inactive); GI50 (DU-145): > 100 µM (inactive); GI50 (M14): > 100 µM (inactive); GI50 (RPMI-8226): > 100 µM (inactive); GI50 (HOP-62): > 100 µM (inactive); GI50 (OVCAR-4): > 100 µM (inactive); GI50 (SW-620): > 100 µM (inactive); GI50 (CAKI-1): > 100 µM (inactive); GI50 (HCC 2998): > 100 µM (inactive); GI50 (HL-60): 59.3 µM (inactive); GI50 (SR): 40.2 µM (inactive); GI50 (SF-539): > 100 µM (inactive); GI50 (MCF7): > 100 µM (inactive); GI50 (LOX IMVI): > 100 µM (inactive); GI50 (MDA-N): > 100 µM (inactive); GI50 (COLO 205): > 100 µM (inactive); GI50 (BT-549): > 100 µM (inactive); GI50 (HOP-92): > 100 µM (inactive); GI50 (KM12): > 100 µM (inactive); GI50 (ACHN): > 100 µM (inactive); GI50 (HCT-15): > 100 µM; GI50 (NCI-H522): > 100 µM (inactive); GI50 (SF-268): > 100 µM (inactive); GI50 (NCI-H226): > 100 µM (inactive); GI50 (OVCAR-8): > 100 µM (inactive); GI50 (U-251): > 100 µM (inactive); GI50 (NCI/ADR-RES): > 100 µM (inactive); GI50 (UACC-257): > 100 µM (inactive); GI50 (SK-MEL-2): > 100 µM (inactive); GI50 (K562): > 100 µM (inactive); GI50 (Malme-3M): > 100 µM (inactive); GI50 (CCRF-CEM): > 100 µM (inactive); GI50 (Hs-578T): > 100 µM (inactive); GI50 (MDA-MB-435): > 100 µM (inactive); GI50 (SNB-19): > 100 µM (inactive); GI50 (HT-29): > 100 µM (inactive); GI50 (T47D): > 100 µM (inactive); GI50 (A549): > 100 µM (inactive); GI50 (MDA-MB-231): 0.684 µM (active); GI50 (NCI-H23): > 100 µM (inactive); GI50 (OVCAR-3): > 100 µM (inactive); GI50 (EKVX): > 100 µM (inactive); GI50 (RXF 393): > 100 µM (inactive)

From ChEMBL document CHEMBL1201862, “PubChem BioAssay data set” (2004)
